Measurements: patent US20110105397A1, “METHOD FOR TREATING HEART FAILURE WITH STRESSCOPIN-LIKE PEPTIDES” (priority 2009, published 2011)
Like-named read-outs stand apart in the source and are kept apart here. Where a SMILES comes first, the peptide text is derived from it. Where no end group is shown, it is not given here. The star is where a group is joined. Succinimide(1-Et,3-yl) = CCN1C(=O)CC(*)C1=O

Molecular target: T1, human CRHR2 (Homo sapiens, UniProt Q13324)
T1 construct: expressed in transfected cells
T1 sequence (Q13324 1-411): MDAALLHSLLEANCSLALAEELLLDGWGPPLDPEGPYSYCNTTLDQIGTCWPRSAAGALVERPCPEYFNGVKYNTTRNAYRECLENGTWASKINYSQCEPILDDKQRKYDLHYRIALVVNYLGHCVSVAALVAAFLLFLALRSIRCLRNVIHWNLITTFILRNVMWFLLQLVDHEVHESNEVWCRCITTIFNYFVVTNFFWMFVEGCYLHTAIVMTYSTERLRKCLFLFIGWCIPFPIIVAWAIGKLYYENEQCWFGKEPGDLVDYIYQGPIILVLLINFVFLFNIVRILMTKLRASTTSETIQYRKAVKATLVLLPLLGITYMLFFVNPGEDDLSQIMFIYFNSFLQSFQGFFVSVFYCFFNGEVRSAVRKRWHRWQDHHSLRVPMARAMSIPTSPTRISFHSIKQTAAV
Experiment: cAMP assay, h-CRHR2 transfected SK-N-MC cells
Assay type: cell-based
Settings: for EC50: read-out: pA50 (converted); for Log DR [M]: h-SCP control pA50 minus test compound pA50 within the same assay batch; for αmax: normalized to the maximum response to h-SCP
Method: The concentration required for 50% maximum effect (A50) was 0.4 nM.
Human CRHR1 (accession number X72304) or CRHR2 (accession number U34587) were cloned into pcDNA3.1/Zeo expression vector and stably transfected into SK—N-MC cells by electroporation. Cells were maintained in MEM w/Earl's Salt with 10% FBS, 50 I.U. penicillin, 50 μg/ml streptomycin, 2 mM L-glutamine, 1 mM sodium pyruvate and 0.1 mM non-essential amino acids, 600 μg/ml G418. Cells were grown at 37° C. in 5% CO2
Cells were plated in 96-well tissue culture dishes (Biocoat from BD Biosciences) overnight at 50,000 cell/well. Cells were washed with PBS then resuspended in DMEM F-12 without phenol red, containing 10 μM isobutylmethylxanthine (IBMX). Cells were incubated with the peptides at concentrations ranging from 1 pM to 10 μM for 60 min at 37° Celsius. […] Forskolin (10 μM), a direct stimulant of adenylate cyclase, was used as positive control. The assays were stopped by the addition of 0.5 M HCl and mixing by orbital rotation for 2 h at 4° Celsius.
To assess the activity of the inventive polypeptide at the CRHR2, an intracellular cAMP measurement test using a Flash plate radioactive assay (Catalog No. Cus56088; Perkin Elmer, Mass., U.S.A.) was employed.
Transfected SK—N-MC cells were plated in 96-well Biocoat tissue culture dishes (BD Biosciences, San Jose, Calif., U.S.A) overnight at 50,000 cell/well. Cells were first washed with PBS and then suspended with DMEM/F-12 without phenol red, containing […]. Suspended cells were transferred into a 96-well flash plate coated with scintillant fluid. Cells were incubated with peptides ranging from 1 pM to 1 μM, for 60 min, at 37° Celsius. Forskolin at 10 μM was used as positive control. After ligand stimulation, cells were lysed by the addition of 0.5M HCl and mixed by orbital rotation for 2 h at 4° Celsius in order to release intracellular cAMP into the media.
Media containing released intracellular cAMP was transferred to a 96-well flash plate coated with scintillant fluid containing an anti-cAMP antibody. In this assay, intracellular cAMP competes with ^125I-labeled cAMP binding to the antibody. To generate a standard curve, cAMP ranging from 2.5 to 250 pmoles/ml was included in the experiment. [^125I]-cAMP was measured on a TopCount scintillation counter (Perkin Elmer, Mass., U.S.A).
Individual agonist concentration-response curve data were fitted to the Hill equation, see formula below, using GraphPad Prism (Graphpad Software, La Jolla, Calif., U.S.A.), to provide estimates of agonist concentration needed to generate one-half maximal response (A50), and the maximal asymptote (α) and Hill slope (nH) parameters. In this equation, [A] is the agonist concentration and E is the measured effect:
For display purposes the mean fitted parameter estimates were used to generate a single E/[A] curve shown superimposed on the mean experimental data. Potency estimates for agonists, pA50, are expressed as the negative logarithm of the midpoint of each curve and listed with their standard error of measurement (SEM). Logarithm base 10 of the agonist dose ratio (Log DR) values were calculated by subtraction of the test compound pA50 value from the corresponding h-SCP (SEQ ID NO:1) control pA50 value within the same assay batch. The SEM values of the Log DR values are given by the square root of the sum of the squared SEM values of the h-SCP (SEQ ID NO:1) control and test compound pA50 values.
Human and rat peptides (see Table 10) were used on the stimulation of h-CRHR1 or h-CRHR2 transfected SK—N-MC cells in the cAMP flash plate assay. Peptides were incubated for 1 hr at 37° Celsius. Curves were calculated using non-linear regression sigmoidal concentration-response analysis calculation in GraphPad Prism. The so obtained pA50 values are shown in Table 11 in addition to literature values. […]

[1] = Table 13, cysteine mutation, N-ethylmaleimide capping, pegylation
[2] = Table 12, amidation and N-terminal deletions, normalized to maximum response to h-SCP, 3-5 replicate experiments

EC50 [1]	Log DR [M] (Table 13)	Molecule	fold less potent than the amidated parent peptide	nH (Table 12)	EC50 [2]	αmax (Table 12)
0.372 nM	0.04	CC[C@H](C)[C@H](NC(=O)[C@H](CCC(N)=O)NC(=O)[C@H](C)NC(=O)[C@H](CCSC)NC(=O)[C@H](CC(C)C)NC(=O)[C@H](Cc1c[nH]cn1)NC(=O)[C@H](C)NC(=O)[C@H](CC(N)=O)NC(=O)[C@H](C)NC(=O)[C@H](CSC1CC(=O)N(CC)C1=O)NC(=O)[C@H](C)NC(=O)[C@H](CCC(N)=O)NC(=O)[C@H](C)NC(=O)[C@H](CCCNC(=N)N)NC(=O)[C@H](CC(C)C)NC(=O)[C@H](CC(N)=O)NC(=O)[C@H](CCCCN)NC(=O)[C@H](C)NC(=O)[C@H](CCCCN)NC(=O)[C@H](C)NC(=O)[C@@H](NC(=O)[C@H](CC(N)=O)NC(=O)[C@H](Cc1ccccc1)NC(=O)[C@H](CC(C)C)NC(=O)[C@H](CC(C)C)NC(=O)[C@H](CC(N)=O)NC(=O)[C@H](CCSC)NC(=O)[C@@H](NC(=O)[C@H](CC(N)=O)NC(=O)[C@@H](NC(=O)[C@@H]1CCCN1C(=O)[C@@H](NC(=O)[C@H](CC(=O)O)NC(=O)[C@H](CC(C)C)NC(=O)[C@H](CO)NC(=O)[C@H](CC(C)C)NC(=O)[C@@H](NC(=O)[C@H](Cc1ccccc1)NC(=O)[C@H](CCCCN)NC(=O)[C@@H](N)[C@@H](C)O)[C@@H](C)O)C(C)C)[C@@H](C)O)[C@@H](C)CC)[C@@H](C)CC)C(N)=O (some centres unmarked) [SEQ ID NO: 46, TKFTLSLDVPTNIMNLLFNIAKAKNLRAQAC(-NES)ANAH LMAQI-NH2] (H-TKFTLSLDVPTNIMNLLFNIAKAKNLRAQAC(Succinimide(1-Et,3-yl))ANAHLMAQI-NH2; N-terminus assumed)				
0.617 nM	0.41	H-TKFTLSLDVPTNIMNLLFNIAKAKNLRAQAAANAHLMCQI-NH2 [SEQ ID NO: 39, TKFTLSLDVPTNIMNLLFNIAKAKNLRAQAAANAHLMCQI-NH2]				
1.74 nM	0.76	TKFTLSLDVPTNIMNLLFNIAKAKNCRAQAAANAHLMAQI-NH2 [SEQ ID NO: 27, TKFTLSLDVPTNIMNLLFNIAKAKNCRAQAAANAHLMAQI-NH2]				
0.339 nM	0.00	H-TKFTLSLDVPTNIMNLLFNIAKAKNLRCQAAANAHLMAQI-NH2 [SEQ ID NO: 29, TKFTLSLDVPTNIMNLLFNIAKAKNLRCQAAANAHLMAQI-NH2]				
1.17 nM	0.70	H-TKFTLSLDVPTNIMNLLFNIAKAKNLRAQAAANCHLMAQI-NH2 [SEQ ID NO: 35, TKFTLSLDVPTNIMNLLFNIAKAKNLRAQAAANCHLMAQI-NH2]				
0.316 nM	−0.03	CC[C@H](C)[C@H](NC(=O)[C@H](CCC(N)=O)NC(=O)[C@H](C)NC(=O)[C@H](CCSC)NC(=O)[C@H](CC(C)C)NC(=O)[C@H](Cc1c[nH]cn1)NC(=O)[C@H](C)NC(=O)[C@H](CC(N)=O)NC(=O)[C@H](C)NC(=O)[C@H](C)NC(=O)[C@H](C)NC(=O)[C@H](CCC(N)=O)NC(=O)[C@H](CSC1CC(=O)N(CC)C1=O)NC(=O)[C@H](CCCNC(=N)N)NC(=O)[C@H](CC(C)C)NC(=O)[C@H](CC(N)=O)NC(=O)[C@H](CCCCN)NC(=O)[C@H](C)NC(=O)[C@H](CCCCN)NC(=O)[C@H](C)NC(=O)[C@@H](NC(=O)[C@H](CC(N)=O)NC(=O)[C@H](Cc1ccccc1)NC(=O)[C@H](CC(C)C)NC(=O)[C@H](CC(C)C)NC(=O)[C@H](CC(N)=O)NC(=O)[C@H](CCSC)NC(=O)[C@@H](NC(=O)[C@H](CC(N)=O)NC(=O)[C@@H](NC(=O)[C@@H]1CCCN1C(=O)[C@@H](NC(=O)[C@H](CC(=O)O)NC(=O)[C@H](CC(C)C)NC(=O)[C@H](CO)NC(=O)[C@H](CC(C)C)NC(=O)[C@@H](NC(=O)[C@H](Cc1ccccc1)NC(=O)[C@H](CCCCN)NC(=O)[C@@H](N)[C@@H](C)O)[C@@H](C)O)C(C)C)[C@@H](C)O)[C@@H](C)CC)[C@@H](C)CC)C(N)=O (some centres unmarked) [SEQ ID NO: 47, TKFTLSLDVPTNIMNLLFNIAKAKNLRC(-NES)QA AANAH LMAQI-NH2] (H-TKFTLSLDVPTNIMNLLFNIAKAKNLRC(Succinimide(1-Et,3-yl))QAAANAHLMAQI-NH2)				
1.62 nM	0.68	CC[C@H](C)[C@H](NC(=O)[C@H](CCC(N)=O)NC(=O)[C@H](C)NC(=O)[C@H](CCSC)NC(=O)[C@H](CC(C)C)NC(=O)[C@H](Cc1c[nH]cn1)NC(=O)[C@H](C)NC(=O)[C@H](CC(N)=O)NC(=O)[C@H](C)NC(=O)[C@H](C)NC(=O)[C@H](C)NC(=O)[C@H](CCC(N)=O)NC(=O)[C@H](C)NC(=O)[C@H](CCCNC(=N)N)NC(=O)[C@H](CC(C)C)NC(=O)[C@H](CC(N)=O)NC(=O)[C@H](CCCCN)NC(=O)[C@H](C)NC(=O)[C@H](CCCCN)NC(=O)[C@H](C)NC(=O)[C@H](CSC1CC(=O)N(CC)C1=O)NC(=O)[C@H](CC(N)=O)NC(=O)[C@H](Cc1ccccc1)NC(=O)[C@H](CC(C)C)NC(=O)[C@H](CC(C)C)NC(=O)[C@H](CC(N)=O)NC(=O)[C@H](CCSC)NC(=O)[C@@H](NC(=O)[C@H](CC(N)=O)NC(=O)[C@@H](NC(=O)[C@@H]1CCCN1C(=O)[C@@H](NC(=O)[C@H](CC(=O)O)NC(=O)[C@H](CC(C)C)NC(=O)[C@H](CO)NC(=O)[C@H](CC(C)C)NC(=O)[C@@H](NC(=O)[C@H](Cc1ccccc1)NC(=O)[C@H](CCCCN)NC(=O)[C@@H](N)[C@@H](C)O)[C@@H](C)O)C(C)C)[C@@H](C)O)[C@@H](C)CC)C(N)=O (some centres unmarked) [SEQ ID NO: 51, TKFTL SLDVP TNIMN LLFNC(-NES) AKAKN LRAQA AANAH LMAQI-NH2] (H-TKFTLSLDVPTNIMNLLFNC(Succinimide(1-Et,3-yl))AKAKNLRAQAAANAHLMAQI-NH2; N-terminus assumed)				
0.389 nM	0.11	H-TKFTLSLDVPTNIMNLLFNIAKAKNLRAQACANAHLMAQI-NH2 [SEQ ID NO: 32, TKFTLSLDVPTNIMNLLFNIAKAKNLRAQACANAHLMAQI-NH2]				
0.794 nM	0.42	TKFTLSLDVPTNIMNLLFNIAKAKNLRAQAAANACLMAQI-NH2 [SEQ ID NO: 36, TKFTLSLDVPTNIMNLLFNIAKAKNLRAQAAANACLMAQI-NH2]				
		TKFTLSLDVPTNIMNLLFNIAKAKNLRAQAAANAHLMAQI-OH [SEQ ID NO: 113, TKFTLSLDVPTNIMNLLFNIAKAKNLRAQAAANAHLMAQI]	approximately 200 fold	1.07	79.4 nM	107.4
		TLSLDVPTNIMNLLFNIAKAKNLRAQAAANAHLMAQI-NH2 [SEQ ID NO: 108, TLSLDVPTNIMNLLFNIAKAKNLRAQAAANAHLMAQI-NH2]		0.82	3.24 nM	106.3
9.55 nM	1.61	TKFTLSLDVPTNIMNLLFNIAKAKNLRAQCAANAHLMAQI-NH2 [SEQ ID NO: 31, TKFTLSLDVPTNIMNLLFNIAKAKNLRAQCAANAHLMAQI-NH2]				
25.1 nM	2.08	TKFTLCLDVPTNIMNLLFNIAKAKNLRAQAAANAHLMAQI-NH2 [SEQ ID NO: 7, TKFTLCLDVPTNIMNLLFNIAKAKNLRAQAAANAHLMAQI-NH2]				
